In patent publication US6448245B1, “Methods of and compounds for inhibiting calpains” (The United States of America as represented by the …, priority 2000, dated 2002):
Several values for one entry are separate records, joined by “and”; a condition that tells them apart may be missing. Equal values may be shown once. Entries after “also recorded” stand apart in the source; their conditions may differ.

Experiments:
[1] = test system: hippocampal primary neurons
Protocol: Hippocampal primary neuron cell cultures were prepared according to the methods described by Mattson, et al., Methods Cell Biol., 46:187-216 (1995). Hippocampi were obtained from rat embryos and incubated for 15 minutes in a solution of 2 mg/ml trypsin in Hank's Balanced Salt Solution (HBSS) containing 2.4 g/l N-[2-hydroxyethyl]piperazine-N′-[2-ethanesulfonic acid] (HEPES) and 10 mg/l gentamicin, pH 7.2 at a concentration of 2 hippocampi/ml. The hippocampi were then rinsed three times in 10 ml of HBSS and incubated for 5 min. in a solution of 1 mg trypsin inhibitor/ml of HBSS. Finally, the cells were rinsed three times with 10 ml of HBSS.
Cells were dissociated by trituration through the narrowed bore of a fire-polished Pasteur pipette and distributed to 35 mm polyethylenimine-coated plastic culture dishes containing 1 ml of MEM+. […]
Each of the cultures was photographed with phase-contrast inverted Zeiss microscope attached with a 35 mm camera at pre-treatment, 24 hours, and 48 hours after treatment at the same location marked by a scratched grid on the bottom of culture dish. […] Neuronal survival was quantified by counting the number of neurons on each of the photos. Neuronal viability was identified and determined by morphological criteria: viable neurons had phase-bright somas and intact processes while nonviable neurons had phase-dark, vacuolated somas, and fragmented neuritis. […]

m-calpain = biological target: T1, m-calpain (Rattus norvegicus, UniProt Q07009); experiment: Calpain inhibition in whole PC12 cells, m-calpain activation; assay type: cell-based; conditions: calcium 1.4 mM, 10 μM ionomycin
T1 construct: endogenous in cells; host or cells: whole PC12 cells
T1 sequence (Q07009 20-700 limits assumed): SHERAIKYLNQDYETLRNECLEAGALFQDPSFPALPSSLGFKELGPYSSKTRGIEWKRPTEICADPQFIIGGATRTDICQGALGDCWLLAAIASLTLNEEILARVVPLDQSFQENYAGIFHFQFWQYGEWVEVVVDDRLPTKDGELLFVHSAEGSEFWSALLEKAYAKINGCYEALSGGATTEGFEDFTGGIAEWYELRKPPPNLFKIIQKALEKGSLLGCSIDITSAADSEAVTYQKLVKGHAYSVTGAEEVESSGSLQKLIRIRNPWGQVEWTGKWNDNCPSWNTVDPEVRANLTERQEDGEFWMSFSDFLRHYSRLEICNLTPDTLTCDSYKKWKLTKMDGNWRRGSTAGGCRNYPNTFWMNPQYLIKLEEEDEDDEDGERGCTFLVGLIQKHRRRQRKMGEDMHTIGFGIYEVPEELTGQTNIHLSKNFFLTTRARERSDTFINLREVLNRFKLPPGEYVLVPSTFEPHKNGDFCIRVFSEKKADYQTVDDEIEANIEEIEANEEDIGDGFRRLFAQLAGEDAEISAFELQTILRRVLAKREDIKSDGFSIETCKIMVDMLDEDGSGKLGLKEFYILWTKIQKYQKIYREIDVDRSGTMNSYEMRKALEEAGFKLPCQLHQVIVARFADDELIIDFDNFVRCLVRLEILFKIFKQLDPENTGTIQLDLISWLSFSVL
T1 sequence (Q64537 1-270 partner): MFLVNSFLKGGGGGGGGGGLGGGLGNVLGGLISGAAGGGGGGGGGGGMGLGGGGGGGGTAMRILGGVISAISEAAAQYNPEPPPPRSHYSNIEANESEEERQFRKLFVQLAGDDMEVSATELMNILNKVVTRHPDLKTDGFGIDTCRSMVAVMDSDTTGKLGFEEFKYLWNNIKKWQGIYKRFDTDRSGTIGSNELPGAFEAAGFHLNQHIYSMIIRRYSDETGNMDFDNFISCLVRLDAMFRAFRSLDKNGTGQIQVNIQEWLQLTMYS
Protocol: Whole cell enzymatic activity was measured as previously described in DePetrillo, Neurochem. 68:1863-69 (1997). The same four inhibitor concentrations were tested, but the substrate concentration was held at 80 μM.

[2] = test system: calpain-mediated spectrin breakdown; experiment: Spectrin breakdown in PC12 cells, western blot with anti-spectrin antibodies; assay type: cell-based; conditions: 0.1 μM, 2 mM Ca2+ fifteen minutes, 10 μM ionomycin
Description: A western blot of the cell extracts was probed with anti-spectrin antibodies (commercially available from Chemicon International, Inc., of Temecula, Calif.). Undigested spectrin appeared as a band at approximately 240 kD. The spectrin breakdown products appeared at approximately 150 kD, and followed a ladder pattern associated with limited and specific proteolysis.

[3] = test system: calpain (μ-calpain and m-calpain isoforms); experiment: Calpain activity in PC12 cell extracts, fluorescence assay with N-succinyl-leu-tyr 7-amino-4-methylcoumarin; assay type: biochemical
Protocol: PC12 cells were grown in an RPMI solution containing 5% fetal bovine serum, 10% heat-inactivated horse serum, and 50 mg/L gentamicin. Cells were isolated by centrifulgation, and cell pellets suspended in 1 mL of extract buffer, containing 30 mM TRIS at pH 6.8, 15 mMEDTA, 5 mMEGTA, 1 mMDTT, […], 0.1 mg/mL AEBSF, 14.4 mM 2-mercaptoethanol, and 1% triton x-100. After 1 cycle of freeze-thaw, the cell extract was centrifuged at 4° C. at 14,000 g for 20 minutes. The supernatant was removed and assayed.
Calpain activity was measuring using N-succinyl-leu-tyr 7-amino-4-methylcoumarin as the specific peptide substrate. Fluorescence was measured in a 96-well microplate format (Dyrex Technologies (UK), Middlesex) with a 380 nm excitation filter and 480 nm emission filter. […]
Data consisting of relative fluorescence units (RFU) was obtained every two minutes for 1 hour. Data was analyzed based on initial rate, defined as the slope of the increase of the obtained RFU value up to a maximum length of 10 minutes. […]
Model sufficiency was evaluated based on whether the objective function converged with a tolerance factor of 1×10^−10, the overall F-value for the regression, and the magnitude and sign of the parameters obtained after convergence. […]

mode of inhibition (m-calpain): competitive inhibition
Structure (SMILES): CC(C)c1nc(CN(C)C(=O)NC(C(=O)N[C@@H](Cc2ccccc2)CC(O)[C@H](Cc2ccccc2)NC(=O)OCc2cncs2)C(C)C)cs1 (relative stereo) [Ritonavir, 10-hydroxy-2-methyl-5-(1-methylethyl)-1-[2-(1-methylethyl)-4-thiazolyl]-3,6-dioxo-8,11-bis(phenylmethyl)-2,4,7,12-tetraazatridecan-13-oic acid, 5-thiazolylmethyl ester, [5S-(5R*,8R* 10R* 11R*)]]
level of cytoprotection ([1]; 100 pM + HNE, no difference from control group): 100%
cell death ([1]; rat, 24 h, 10 μM, pH 7.2): ~100%
inhibition of spectrin breakdown [2]: inhibit spectrin breakdown
